Laboratory results published in PubChem BioAssay AID316 (DTP/NCI, 2004).
“And” between values parts separate entries of the source, which are not always exact repeats. Identical values can stand only once. Toxic doses and inconclusive results are not listed.

Test system: P1534 leukemia ip, CD2F1 mice, survival T/C
Test: NCI In Vivo Anticancer Drug Screen. Data for tumor model P1534 Leukemia (intraperitoneal) in CD2F1 (CDF1) mice
Conditions: endpoint: mean survival time, higher = longer survival
Description: The antitumor activity of compounds was measured in mice bearing transplantable tumors. Survival or tumor size were measured and the results are expressed as the measurement made in the treated group (T) divided by the measurement made in the vehicle treated control group (C). The tumor model used in this assay is P1534 Leukemia (intraperitoneal) in CD2F1 (CDF1) mice

[1] = dose: 62.5 mg/kg/injection, schedule: Q01DX010 (ip), vehicle: saline
[2] = dose: 125.0 mg/kg/injection, schedule: Q01DX010 (ip), vehicle: saline
[3] = dose: 25.0 mg/kg/injection, schedule: Q01DX010 (ip), vehicle: saline
[4] = dose: 50.0 mg/kg/injection, schedule: Q01DX010 (ip), vehicle: saline
[5] = dose: 100.0 mg/kg/injection, schedule: Q01DX010 (ip), vehicle: saline
[6] = dose: 12.5 mg/kg/injection, schedule: Q01DX010 (ip), vehicle: saline

O=C(Nc1ccc(C2=NCCN2)cc1)c1ccc(C(=O)Nc2ccc(C3=NCCN3)cc2)cc1
T/C (dose: 8.0 mg/kg/injection, schedule: Q01DX010 (ip), vehicle: saline): 104 % of control
T/C (dose: 16.0 mg/kg/injection, schedule: Q01DX010 (ip), vehicle: saline): 100 % of control
T/C (dose: 32.0 mg/kg/injection, schedule: Q01DX010 (ip), vehicle: saline): 104 % of control and 100 % of control
T/C (dose: 64.0 mg/kg/injection, schedule: Q01DX010 (ip), vehicle: saline): 104 % of control and 100 % of control

CC(=O)O[C@H]1C(=O)[C@@]2(C)[C@H]([C@H](OC(=O)c3ccccc3)[C@]3(O)C[C@H](OC(=O)[C@H](O)[C@@H](NC(=O)c4ccccc4)c4ccccc4)C(C)=C1C3(C)C)[C@]1(OC(C)=O)CO[C@@H]1C[C@@H]2O
T/C (dose: 1.88 mg/kg/injection, schedule: Q01DX010 (ip), vehicle: saline): 300 % of control
T/C (dose: 3.75 mg/kg/injection, schedule: Q01DX010 (ip), vehicle: saline): 300 % of control
T/C (dose: 7.5 mg/kg/injection, schedule: Q01DX010 (ip), vehicle: saline): 250 % of control
T/C (dose: 15.0 mg/kg/injection, schedule: Q01DX010 (ip), vehicle: saline): 89 % of control

O=c1cn[nH]c(=O)[nH]1
T/C [1]: 94 % of control and 100 % of control
T/C [2]: 100 % of control
T/C (dose: 250.0 mg/kg/injection, schedule: Q01DX010 (ip), vehicle: saline): 94 % of control and 100 % of control
T/C (dose: 500.0 mg/kg/injection, schedule: Q01DX010 (ip), vehicle: saline): 105 % of control and 111 % of control

COc1cc2c(c3c1c(=O)c1ccccc1n3C)C=CC(C)(C)O2
T/C (dose: 6.25 mg/kg/injection, schedule: Q01DX010 (ip), vehicle: other): 108 % of control
T/C (dose: 12.5 mg/kg/injection, schedule: Q01DX010 (ip), vehicle: other): 108 % of control
T/C (dose: 25.0 mg/kg/injection, schedule: Q01DX010 (ip), vehicle: other): 116 % of control
T/C (dose: 50.0 mg/kg/injection, schedule: Q01DX010 (ip), vehicle: other): 91 % of control
T/C (dose: 100.0 mg/kg/injection, schedule: Q01DX010 (ip), vehicle: other): 116 % of control

Cc1cc(N(CCCl)CCCl)ccc1C=Nc1ccccc1-c1ccccc1
T/C [3]: 100 % of control
T/C [4]: 100 % of control
T/C [5]: 100 % of control

C[C@]12C=CC(=O)C=C1CC[C@@H]1[C@@H]2C(=O)C[C@@]2(C)[C@H]1CC[C@]2(O)C(=O)CO
T/C (dose: 3.13 mg/kg/injection, schedule: Q01DX010 (sc), vehicle: steriod suspending solution): 99 % of control
T/C (dose: 6.25 mg/kg/injection, schedule: Q01DX010 (sc), vehicle: steriod suspending solution): 95 % of control
T/C (dose: 10.0 mg/kg/injection, schedule: Q01DX005 (sc), vehicle: steriod suspending solution): 105 % of control and 109 % of control and 100 % of control
T/C (dose: 12.5 mg/kg/injection, schedule: Q01DX010 (sc), vehicle: steriod suspending solution): 88 % of control
T/C (dose: 50.0 mg/kg/injection, schedule: Q01DX005 (sc), vehicle: steriod suspending solution): 107 % of control and 108 % of control and 110 % of control
T/C (dose: 100.0 mg/kg/injection, schedule: Q01DX005 (sc), vehicle: steriod suspending solution): 108 % of control and 99 % of control and 100 % of control
T/C (dose: 200.0 mg/kg/injection, schedule: Q01DX005 (sc), vehicle: steriod suspending solution): 86 % of control and 102 % of control
T/C (dose: 250.0 mg/kg/injection, schedule: Q01DX005 (sc), vehicle: steriod suspending solution): 90 % of control and 93 % of control

Clc1[nH]nc2ccccc12
T/C (dose: 7.8 mg/kg/injection, schedule: Q01DX010 (ip), vehicle: saline): 100 % of control
T/C (dose: 15.6 mg/kg/injection, schedule: Q01DX010 (ip), vehicle: saline): 96 % of control
T/C (dose: 31.3 mg/kg/injection, schedule: Q01DX010 (ip), vehicle: saline): 96 % of control
T/C [1]: 107 % of control and 100 % of control
T/C [2]: 92 % of control

O=C(NO)c1ccc([N+](=O)[O-])cc1
T/C (dose: 270.0 mg/kg/injection, schedule: Q01DX010 (ip), vehicle: water): 108 % of control
T/C (dose: 400.0 mg/kg/injection, schedule: Q01DX010 (ip), vehicle: water): 112 % of control

CC(C)=CCC1=C(O)c2ccccc2C(=O)C1=O
T/C (dose: 200.0 mg/kg/injection, schedule: Q01DX010 (oral), vehicle: other): 102 % of control
T/C (dose: 300.0 mg/kg/injection, schedule: Q01DX010 (oral), vehicle: other): 115 % of control
T/C (dose: 400.0 mg/kg/injection, schedule: Q01DX010 (oral), vehicle: other): 112 % of control
T/C (dose: 600.0 mg/kg/injection, schedule: Q01DX010 (oral), vehicle: other): 103 % of control

NCCCC(N)C(=O)NCCCCCCNCCCCCCNC(=O)C(N)CCCN (stereo unspecified)
T/C [6]: 100 % of control
T/C [3]: 92 % of control
T/C [4]: 100 % of control
T/C [5]: 96 % of control

O=C(C[C@H]1CCC[C@H](CC(=O)c2ccccc2)N1)c1ccccc1
T/C [6]: 92 % of control
T/C [3]: 107 % of control
T/C [4]: 107 % of control
